According to PubChem BioAssay (NCI):
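Values below derive from 48-hour exposures of cells grown in 96-well plates, with endpoints linearly interpolated between the two concentrations bracketing the appropriate inhibition level. At the GI50, growth is halved. TGI marks complete inhibition of growth.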

How the values were obtained:
Assay in all cases: DTP human tumour cell line panel, 48 h
CCRF-CEM leukemia = system: CCRF-CEM leukemia
HCT-116 colon = system: HCT-116 colon
SK-MEL-28 melanoma = system: SK-MEL-28 melanoma
SK-OV-3 ovarian = system: SK-OV-3 ovarian
NCI/ADR-RES ovarian = system: NCI/ADR-RES ovarian
UO-31 renal = system: UO-31 renal
DU-145 prostate = system: DU-145 prostate
RPMI-8226 leukemia = system: RPMI-8226 leukemia
OVCAR-4 ovarian = system: OVCAR-4 ovarian
OVCAR-3 ovarian = system: OVCAR-3 ovarian
NCI-H460 lung = system: NCI-H460 lung
NCI-H522 lung = system: NCI-H522 lung
OVCAR-8 ovarian = system: OVCAR-8 ovarian
U251 CNS = system: U251 CNS
KM12 colon = system: KM12 colon
ACHN renal = system: ACHN renal
SR leukemia = system: SR leukemia
CAKI-1 renal = system: CAKI-1 renal
COLO 205 colon = system: COLO 205 colon
SW-620 colon = system: SW-620 colon
PC-3 prostate = system: PC-3 prostate
BT-549 breast = system: BT-549 breast
SF-268 CNS = system: SF-268 CNS
K-562 leukemia = system: K-562 leukemia
SK-MEL-5 melanoma = system: SK-MEL-5 melanoma
LOX IMVI melanoma = system: LOX IMVI melanoma
A498 renal = system: A498 renal
HCC-2998 colon = system: HCC-2998 colon
RXF 393 renal = system: RXF 393 renal
HOP-62 NSCLC = system: HOP-62 NSCLC
IGROV1 ovarian = system: IGROV1 ovarian
TK-10 renal = system: TK-10 renal
SNB-75 CNS = system: SNB-75 CNS
HCT-15 colon = system: HCT-15 colon
MCF7 breast = system: MCF7 breast
786-0 renal = system: 786-0 renal
SNB-19 CNS = system: SNB-19 CNS
SF-295 CNS = system: SF-295 CNS
SN12C renal = system: SN12C renal
MDA-MB-435 = system: MDA-MB-435
T-47D breast = system: T-47D breast
A549 NSCLC = system: A549 NSCLC
NCI-H226 lung = system: NCI-H226 lung
SF-539 CNS = system: SF-539 CNS
MALME-3M melanoma = system: MALME-3M melanoma
MDA-MB-468 breast = system: MDA-MB-468 breast
HOP-92 NSCLC = system: HOP-92 NSCLC
MDA-MB-231 breast = system: MDA-MB-231 breast
M14 melanoma = system: M14 melanoma
HT29 colon = system: HT29 colon
OVCAR-5 ovarian = system: OVCAR-5 ovarian
NCI-H23 lung = system: NCI-H23 lung
EKVX NSCLC = system: EKVX NSCLC
MOLT-4 leukemia = system: MOLT-4 leukemia
UACC-62 melanoma = system: UACC-62 melanoma
HS 578T breast = system: HS 578T breast
SK-MEL-2 melanoma = system: SK-MEL-2 melanoma
HL-60(TB) leukemia = system: HL-60(TB) leukemia
UACC-257 melanoma = system: UACC-257 melanoma

Which GI50 (CCRF-CEM leukemia) does the source give for `Cc1ccc(C(=O)C[n+]2cccc3c4ccccc4ccc32)cc1` here?
Its GI50 is 13.1 µM.

And the TGI (CCRF-CEM leukemia)?
The TGI was 70 µM.

And the GI50 (HCT-116 colon)?
The GI50 was 6.64 µM.

And the TGI (HCT-116 colon)?
Its TGI is 28.6 µM.

What about the GI50 (SK-MEL-28 melanoma) of the same compound?
The GI50 was 14.8 µM.

And the TGI (SK-MEL-28 melanoma)?
Its TGI is 32.6 µM.

What about the GI50 (SK-OV-3 ovarian) of the same compound?
The GI50 was 22.1 µM.

What about the TGI (SK-OV-3 ovarian) of the same compound?
Its TGI is over 100 µM.

And the GI50 (NCI/ADR-RES ovarian)?
The GI50 was over 100 µM.

What about the TGI (NCI/ADR-RES ovarian) of the same compound?
The TGI was over 100 µM.

What about the GI50 (UO-31 renal) of the same compound?
Its GI50 is 19.9 µM.

What about the TGI (UO-31 renal) of the same compound?
The TGI was over 100 µM.

And the GI50 (DU-145 prostate)?
Its GI50 is 18.5 µM.

And the TGI (DU-145 prostate)?
Its TGI is over 100 µM.

What about the GI50 (RPMI-8226 leukemia) of the same compound?
The GI50 was 3.87 µM.

What about the TGI (RPMI-8226 leukemia) of the same compound?
Its TGI is 21.9 µM.

What about the GI50 (OVCAR-4 ovarian) of the same compound?
Its GI50 is 4.43 µM.

And the TGI (OVCAR-4 ovarian)?
The TGI was over 100 µM.

What about the GI50 (OVCAR-3 ovarian) of the same compound?
Its GI50 is 6.1 µM.

What about the TGI (OVCAR-3 ovarian) of the same compound?
Its TGI is 52.3 µM.

And the GI50 (NCI-H460 lung)?
The GI50 was 10.5 µM.

What about the TGI (NCI-H460 lung) of the same compound?
The TGI was 25.8 µM.

And the GI50 (NCI-H522 lung)?
Its GI50 is 6.66 µM.

And the TGI (NCI-H522 lung)?
Its TGI is 24.6 µM.

What about the GI50 (OVCAR-8 ovarian) of the same compound?
Its GI50 is 6.97 µM.

And the TGI (OVCAR-8 ovarian)?
The TGI was over 100 µM.

And the GI50 (U251 CNS)?
The GI50 was 9.32 µM.

And the TGI (U251 CNS)?
The TGI was 34.8 µM.

And the GI50 (KM12 colon)?
Its GI50 is 16 µM.

What about the TGI (KM12 colon) of the same compound?
Its TGI is 65 µM.

And the GI50 (ACHN renal)?
Its GI50 is 15.9 µM.

And the TGI (ACHN renal)?
Its TGI is over 100 µM.

What about the GI50 (SR leukemia) of the same compound?
Its GI50 is 29.7 µM.

And the TGI (SR leukemia)?
Its TGI is over 100 µM.

What about the GI50 (CAKI-1 renal) of the same compound?
The GI50 was 15.6 µM.

And the TGI (CAKI-1 renal)?
Its TGI is 71.1 µM.

What about the GI50 (COLO 205 colon) of the same compound?
The GI50 was 9.03 µM.

What about the TGI (COLO 205 colon) of the same compound?
Its TGI is 25.5 µM.

What about the GI50 (SW-620 colon) of the same compound?
Its GI50 is 13.4 µM.

What about the TGI (SW-620 colon) of the same compound?
The TGI was 87.1 µM.

And the GI50 (PC-3 prostate)?
Its GI50 is 5.53 µM.

What about the TGI (PC-3 prostate) of the same compound?
Its TGI is 59.4 µM.

And the GI50 (BT-549 breast)?
Its GI50 is 5.68 µM.

What about the TGI (BT-549 breast) of the same compound?
Its TGI is 18.9 µM.

And the GI50 (SF-268 CNS)?
The GI50 was 17.2 µM.

And the TGI (SF-268 CNS)?
The TGI was over 100 µM.

What about the GI50 (K-562 leukemia) of the same compound?
Its GI50 is 2450 nM.

And the TGI (K-562 leukemia)?
The TGI was over 100 µM.

What about the GI50 (SK-MEL-5 melanoma) of the same compound?
The GI50 was 3.73 µM.

What about the TGI (SK-MEL-5 melanoma) of the same compound?
The TGI was 14.8 µM.

And the GI50 (LOX IMVI melanoma)?
The GI50 was 11.2 µM.

And the TGI (LOX IMVI melanoma)?
The TGI was 24.1 µM.

What about the GI50 (A498 renal) of the same compound?
Its GI50 is 24.1 µM.

What about the TGI (A498 renal) of the same compound?
Its TGI is over 100 µM.

And the GI50 (HCC-2998 colon)?
Its GI50 is 13.6 µM.

And the TGI (HCC-2998 colon)?
The TGI was 28.3 µM.

And the GI50 (RXF 393 renal)?
The GI50 was 3.82 µM.

What about the TGI (RXF 393 renal) of the same compound?
Its TGI is 21.6 µM.

What about the GI50 (HOP-62 NSCLC) of the same compound?
The GI50 was 11.8 µM.

And the TGI (HOP-62 NSCLC)?
Its TGI is over 100 µM.

And the GI50 (IGROV1 ovarian)?
The GI50 was 19.1 µM.

And the TGI (IGROV1 ovarian)?
The TGI was 82.5 µM.

And the GI50 (TK-10 renal)?
Its GI50 is 26.4 µM.

What about the TGI (TK-10 renal) of the same compound?
The TGI was over 100 µM.

What about the GI50 (SNB-75 CNS) of the same compound?
Its GI50 is 8.73 µM.

What about the TGI (SNB-75 CNS) of the same compound?
The TGI was 61.9 µM.

What about the GI50 (HCT-15 colon) of the same compound?
Its GI50 is 28.1 µM.

And the TGI (HCT-15 colon)?
The TGI was over 100 µM.

And the GI50 (MCF7 breast)?
Its GI50 is 5.44 µM.

And the TGI (MCF7 breast)?
The TGI was 24.4 µM.

And the GI50 (786-0 renal)?
Its GI50 is 18.6 µM.

What about the TGI (786-0 renal) of the same compound?
The TGI was 48.3 µM.

And the GI50 (SNB-19 CNS)?
Its GI50 is 18.5 µM.

And the TGI (SNB-19 CNS)?
The TGI was over 100 µM.

What about the GI50 (SF-295 CNS) of the same compound?
The GI50 was 7.05 µM.

What about the TGI (SF-295 CNS) of the same compound?
Its TGI is 29.1 µM.

And the GI50 (SN12C renal)?
The GI50 was 12.5 µM.

And the TGI (SN12C renal)?
The TGI was over 100 µM.

And the GI50 (MDA-MB-435)?
The GI50 was 14.2 µM.

And the TGI (MDA-MB-435)?
Its TGI is 29.8 µM.

What about the GI50 (T-47D breast) of the same compound?
Its GI50 is 6.57 µM.

What about the TGI (T-47D breast) of the same compound?
Its TGI is 46.2 µM.

What about the GI50 (A549 NSCLC) of the same compound?
Its GI50 is 11 µM.

What about the TGI (A549 NSCLC) of the same compound?
The TGI was over 100 µM.

And the GI50 (NCI-H226 lung)?
Its GI50 is 5.18 µM.

And the TGI (NCI-H226 lung)?
The TGI was 42.9 µM.

What about the GI50 (SF-539 CNS) of the same compound?
Its GI50 is 16.9 µM.

What about the TGI (SF-539 CNS) of the same compound?
The TGI was 58.7 µM.

What about the GI50 (MALME-3M melanoma) of the same compound?
The GI50 was 13.9 µM.

What about the TGI (MALME-3M melanoma) of the same compound?
Its TGI is 27.4 µM.

What about the GI50 (MDA-MB-468 breast) of the same compound?
Its GI50 is 1610 nM.

What about the TGI (MDA-MB-468 breast) of the same compound?
The TGI was 7.72 µM.

What about the GI50 (HOP-92 NSCLC) of the same compound?
Its GI50 is 6.11 µM.

And the TGI (HOP-92 NSCLC)?
The TGI was 40.8 µM.

And the GI50 (MDA-MB-231 breast)?
The GI50 was 14.4 µM.

What about the TGI (MDA-MB-231 breast) of the same compound?
Its TGI is 40.8 µM.

And the GI50 (M14 melanoma)?
The GI50 was 11.1 µM.

What about the TGI (M14 melanoma) of the same compound?
Its TGI is 29.2 µM.

What about the GI50 (HT29 colon) of the same compound?
Its GI50 is 5.6 µM.

And the TGI (HT29 colon)?
The TGI was 48.4 µM.

What about the GI50 (OVCAR-5 ovarian) of the same compound?
Its GI50 is 20.4 µM.

What about the TGI (OVCAR-5 ovarian) of the same compound?
Its TGI is over 100 µM.

What about the GI50 (NCI-H23 lung) of the same compound?
The GI50 was 10.6 µM.

What about the TGI (NCI-H23 lung) of the same compound?
The TGI was 49 µM.

What about the GI50 (EKVX NSCLC) of the same compound?
The GI50 was 7.26 µM.

And the TGI (EKVX NSCLC)?
The TGI was over 100 µM.

And the GI50 (MOLT-4 leukemia)?
The GI50 was 13.2 µM.

And the TGI (MOLT-4 leukemia)?
The TGI was 83.9 µM.

And the GI50 (UACC-62 melanoma)?
The GI50 was 12.6 µM.

What about the TGI (UACC-62 melanoma) of the same compound?
The TGI was 26.5 µM.

And the GI50 (HS 578T breast)?
Its GI50 is 15.8 µM.

What about the TGI (HS 578T breast) of the same compound?
The TGI was 83.4 µM.

What about the GI50 (SK-MEL-2 melanoma) of the same compound?
The GI50 was 14.5 µM.

What about the TGI (SK-MEL-2 melanoma) of the same compound?
The TGI was 52.5 µM.

What about the GI50 (HL-60(TB) leukemia) of the same compound?
Its GI50 is 3.75 µM.

What about the TGI (HL-60(TB) leukemia) of the same compound?
The TGI was 21.1 µM.

What about the GI50 (UACC-257 melanoma) of the same compound?
Its GI50 is 10.3 µM.

And the TGI (UACC-257 melanoma)?
Its TGI is 25.7 µM.
